Patent publication US12655106B2 (Eikonizo Therapeutics, Inc., priority 2021, dated 2026)

Columns and labels:
Full length Human HDAC6 = molecular target: T1, Full length Human HDAC6 (Homo sapiens, UniProt Q9UBN7); assay: Caliper endpoint assay for HDAC enzymatic activity (HDAC6); type: biochemical; details: for IC50: in vitro enzymatic, Caliper endpoint assay, 30 min pre-incubation, 1 μM substrate peptide; for Selectivity (6 v 8): ratio of HDAC8 IC50/HDAC6 IC50
T1 construct: Full length Human HDAC6; FLAG (C); host or cells: baculovirus expression system
T1 sequence (Q9UBN7 1-1215): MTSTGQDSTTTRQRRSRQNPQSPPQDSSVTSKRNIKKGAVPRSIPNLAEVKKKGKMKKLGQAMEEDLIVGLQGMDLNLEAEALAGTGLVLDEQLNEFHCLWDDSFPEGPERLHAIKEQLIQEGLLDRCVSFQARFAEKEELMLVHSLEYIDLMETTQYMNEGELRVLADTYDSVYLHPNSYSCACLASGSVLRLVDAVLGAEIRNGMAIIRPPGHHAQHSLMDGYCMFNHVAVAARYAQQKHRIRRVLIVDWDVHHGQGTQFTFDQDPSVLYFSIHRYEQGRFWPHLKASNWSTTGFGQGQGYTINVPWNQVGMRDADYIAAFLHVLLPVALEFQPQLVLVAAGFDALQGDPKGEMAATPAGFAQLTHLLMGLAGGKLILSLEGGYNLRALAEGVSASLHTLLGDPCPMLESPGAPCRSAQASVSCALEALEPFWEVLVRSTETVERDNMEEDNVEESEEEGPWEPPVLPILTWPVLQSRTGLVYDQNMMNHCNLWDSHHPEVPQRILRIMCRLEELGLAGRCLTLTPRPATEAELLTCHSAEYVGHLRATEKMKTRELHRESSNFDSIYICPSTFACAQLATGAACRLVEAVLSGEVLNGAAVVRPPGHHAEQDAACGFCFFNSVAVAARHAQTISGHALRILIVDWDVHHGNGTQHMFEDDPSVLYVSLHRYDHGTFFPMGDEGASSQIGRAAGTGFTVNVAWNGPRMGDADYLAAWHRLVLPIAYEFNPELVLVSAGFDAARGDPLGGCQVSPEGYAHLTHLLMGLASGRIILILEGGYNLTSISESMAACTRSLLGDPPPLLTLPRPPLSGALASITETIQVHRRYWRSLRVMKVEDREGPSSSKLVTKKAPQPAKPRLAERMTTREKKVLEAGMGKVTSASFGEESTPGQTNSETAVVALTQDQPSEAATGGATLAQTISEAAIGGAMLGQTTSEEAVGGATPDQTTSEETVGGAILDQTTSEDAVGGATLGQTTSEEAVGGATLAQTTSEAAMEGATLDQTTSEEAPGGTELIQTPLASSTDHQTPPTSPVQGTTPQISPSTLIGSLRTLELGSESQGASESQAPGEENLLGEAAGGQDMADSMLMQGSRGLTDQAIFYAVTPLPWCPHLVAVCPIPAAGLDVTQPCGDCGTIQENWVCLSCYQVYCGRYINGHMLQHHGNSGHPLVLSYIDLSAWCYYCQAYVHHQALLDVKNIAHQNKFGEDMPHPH

Full length Human HDAC8 = molecular target: T2, Full length Human HDAC8 (Homo sapiens, UniProt Q9BY41); assay: Caliper endpoint assay for HDAC enzymatic activity (HDAC8); type: biochemical; details: in vitro enzymatic, 30 min pre-incubation, 1 μM substrate peptide
T2 construct: Full length Human HDAC8; HIS (N); host or cells: baculovirus expression system
T2 sequence (Q9BY41 1-377): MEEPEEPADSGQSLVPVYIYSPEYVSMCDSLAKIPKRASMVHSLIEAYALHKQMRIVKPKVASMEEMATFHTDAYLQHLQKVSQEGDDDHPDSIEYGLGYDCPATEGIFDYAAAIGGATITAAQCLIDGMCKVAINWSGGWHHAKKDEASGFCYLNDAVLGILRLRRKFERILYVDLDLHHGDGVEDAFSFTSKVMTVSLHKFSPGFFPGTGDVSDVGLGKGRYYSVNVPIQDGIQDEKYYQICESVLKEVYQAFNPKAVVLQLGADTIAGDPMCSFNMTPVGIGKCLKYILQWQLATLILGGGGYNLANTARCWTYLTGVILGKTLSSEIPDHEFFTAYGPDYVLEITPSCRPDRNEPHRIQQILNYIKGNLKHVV

| SMILES | IC50 (Full length Human HDAC6) | IC50 (Full length Human HDAC8) | Selectivity (6 v 8) (Full length Human HDAC6) |
| --- | --- | --- | --- |
| CC[C@H]1N(Cc2ccc(C(=O)NO)cc2F)CC12CCCC2 [Compound 169] | 1 to 100 nM | 1000 to 10000 nM |  |
| O=C(NO)c1cc(F)c2c(c1)CCN(C1CC3(CCOCC3)C1)C2 [Compound 179, 8-Fluoro-N-hydroxy-2-(7-oxaspiro[3.5]nonan-2-yl)-1,2,3,4-tetrahydroisoquinoline-6-carboxamide] | 1 to 100 nM | > 100000 nM | V (V: >1000) |
| CC[C@@H]1Cc2c(F)cc(C(=O)NO)cc2CN1C1CC2(CCCCC2)C1 (single isomer, unassigned) [Compound 232] | 100 to 1000 nM | 10000 to 100000 nM | IV (IV: >100-1000) |
| O=C(NO)c1cc(F)c2c(c1)CCN([C@@H]1CCNC3(CCC3)C1)C2 (single isomer, unassigned) [Compound 436] | 1 to 100 nM | 1000 to 10000 nM | IV (IV: >100-1000) |
| CN1CC2(CN3CCc4cc(C(=O)NO)cc(F)c4C3)CC1C2 [Compound 490, 8-fluoro-2-[(2-methyl-2-azabicyclo[2.1.1]hexan-4-yl)methyl]-3,4-dihydro-1H-isoquinoline-6-carbohydroxamic acid] | 1 to 100 nM | 1000 to 10000 nM | IV (IV: >100-1000) |
| CC[C@@H]1Cc2c(F)cc(C(=O)NO)cc2CN1C1CCCCC1 (single isomer, unassigned) [Compound 582] | 100 to 1000 nM | 10000 to 100000 nM | III (III: >10-100) |
| O=C(NO)c1cc(F)c2c(c1)CCN(CC1CCC3(CC1)CNC3)C2 [Compound 464, 2-(2-azaspiro[3.5]nonan-7-ylmethyl)-8-fluoro-3,4-dihydro-1H-isoquinoline-6-carbohydroxamic acid] | 1 to 100 nM | 10000 to 100000 nM | V (V: >1000) |
| CN1Cc2cc(C(=O)NO)cc(F)c2CN1Cc1ccccc1 [Compound 118] | 1 to 100 nM | 1000 to 10000 nM | IV (IV: >100-1000) |
| O=C(NO)c1cc(F)c2c(c1)C[C@H]1CCCCN1C2 [Compound 94] | 100 to 1000 nM | 1000 to 10000 nM | III (III: >10-100) |
| O=C(NO)c1cc(F)c2c(c1)CCN([C@H]1CCC3(CCC3)C1)C2 (single isomer, unassigned) [Compound 383] | 1 to 100 nM | 10000 to 100000 nM | V (V: >1000) |
| CC[C@@H]1Cc2c(F)cc(C(=O)NO)cc2CN1C1CC2(C1)CN(C)C2 (single isomer, unassigned) [Compound 584] | 100 to 1000 nM | 10000 to 100000 nM | IV (IV: >100-1000) |
| O=C(NO)c1ccc2c(c1)CCN1CCCC[C@H]21 [Compound 90] | 1000 to 10000 nM | 1000 to 10000 nM | II (II: >1-10) |
| CC[C@H]1Cc2c(F)cc(C(=O)NO)cc2CN1CC1CC2(CCCCC2)C1 (single isomer, unassigned) [Compound 522] | 1 to 100 nM | 100 to 1000 nM | III (III: >10-100) |
| CC(=O)N1CC2(CCC(N3CCc4cc(C(=O)NO)cc(F)c4C3)CC2)C1 [Compound 429, 2-(2-acetyl-2-azaspiro[3.5]nonan-7-yl)-8-fluoro-3,4-dihydro-1H-isoquinoline-6-carbohydroxamic acid] | 1 to 100 nM | 10000 to 100000 nM | IV (IV: >100-1000) |
| O=C(NO)c1cc(F)c2c(c1)CCN(CC13CC4CC(CC(C4)N1)C3)C2 [Compound 176] | 1 to 100 nM | 10000 to 100000 nM | V (V: >1000) |
| CC(C)N1CC2(CCCCC2)CC[C@H]1Cc1cc(F)cc(C(=O)NO)c1 (single isomer, unassigned) [Compound 274] | 10000 to 100000 nM | 1000 to 10000 nM | I (I: 0.1-1) |
